Read-outs that look alike come from different tables or passages of the source. Residues, ends and D or L forms follow the SMILES beside them. No end group written: not given here.
Tests used:
E. coli CCARM 1238 = assay: microbe, parasite or virus in culture; format: cell-based, Escherichia coli
Source text: (§1) Escherichia coli (KCTC 1682), Salmonella typhimurium (KCTC 1926), Pseudomonas aeruginosa (KCTC 1637), Staphylococcus aureus (KCTC 1621), Bacillus subtilis (KCTC 1918), and Listeria monocytogenes (KCTC 3710) were obtained from the Korean Collection for Type Cultures (KCTC). Drug-resistant E. coli strains (CCARM 1229 and CCARM 1238), S. typhimurium strains (CCARM 8007, CCARM 8009, and CCARM 8013), and S. aureus strains (CCARM 3089, CCARM 3090, CCARM 3108, CCARM 3114, and CCARM 3126) were from the Culture Collection of Antibiotic-Resistant Microbes (CCARM) at Seoul Women’s University, Korea.
(§2) The antibacterial activities of the peptides against Gram-negative, Gram-positive and antibiotic-resistant bacterial strains were evaluated using the microbroth dilution method (Park et al. [2003]). Aliquots of culture medium containing bacterial suspensions in mid-logarithmic phase at a concentration of 2 × 10^5 colony forming units (CFU)/ml were added to each well of a multiwell plate containing peptide solution serially diluted 2× in 10 mM sodium phosphate buffer (pH 7.2) or phosphate-buffered saline (PBS, 1.5 mM KH2PO4, 2.7 mM KCl, 8.1 mM Na2HPO4, 150 mM NaCl, pH 7.2). Growth inhibition was evaluated by measuring the absorbance at 620 nm using a Versa-Max microplate Elisa Reader (Molecular Devices Co., Sunnyvale, CA, USA) after 24 h of incubation at 37° C. […] All MIC measurements were the average of 3–4 independent experiments.

E. coli CCARM 1229 = assay: microbe, parasite or virus in culture; format: cell-based, Escherichia coli
Source text: as §1, §2

[1] = system: S. typhimurium CCARM 8013; assay: microbe, parasite or virus in culture; format: cell-based, Salmonella typhimurium
Source text: as §1, §2

[2] = system: S. typhimurium CCARM 8007; assay: microbe, parasite or virus in culture; format: cell-based, Salmonella typhimurium
Source text: as §1, §2

[3] = system: S. typhimurium CCARM 8009; assay: microbe, parasite or virus in culture; format: cell-based, Salmonella typhimurium
Source text: as §1, §2

[4] = system: Bacillus subtilis (KCTC 1918); format: cell-based; settings: KCTC 1918, 24 h, pH 7.2
Source text: as §1, §2

[5] = system: Listeria monocytogenes (KCTC 3710); format: cell-based; settings: KCTC 3710, 24 h, pH 7.2
Source text: as §1, §2

[6] = system: Pseudomonas aeruginosa (KCTC 1637); format: cell-based; settings: KCTC 1637, 24 h, pH 7.2
Source text: as §1, §2

human red blood cells = assay: Human red blood cell (hRBC) hemolysis; format: cell-based; settings: for MHC (minimal hemolytic concentration): minimal peptide concentration that produces 10 % hemolysis, hRBCs in PBS; for Hemolysis: 200 μM peptide in PBS pH 7.2, 4 % v/v hRBCs, 60 min at 37° C, absorbance 414 nm, 100 % = 0.1 % Triton X-100, triplicate
Experimental: Hemolytic activities of the peptides were assessed using heparinized hRBCs collected from healthy donors. Fresh hRBCs were washed three times by centrifugation at 800×g for 10 min in PBS (pH 7.2) and then resuspended in PBS. The peptides were then dissolved in PBS and added to 100 μl of stock hRBCs suspended in PBS (final RBC concentration, 4 % v/v), after which the samples were incubated with gentle agitation for 60 min at 37° C before centrifugation for 10 min at 800×g. Absorbance of the supernatants was recorded at 414 nm. In addition, control samples for zero hemolysis and 100 % hemolysis were incubated with PBS (A blank) or 0.1 % Triton X-100 (A triton), respectively. Melittin was used as a reference hemolytic peptide. Percent hemolysis was calculated according to the following equation: Each measurement was conducted in triplicate (Kim et al. [2011]).

S. aureus CCARM 3114 = assay: microbe, parasite or virus in culture; format: cell-based, Staphylococcus aureus
Source text: as §1, §2

S. aureus CCARM 3090 = assay: microbe, parasite or virus in culture; format: cell-based, Staphylococcus aureus
Source text: as §1, §2

S. aureus CCARM 3089 = assay: microbe, parasite or virus in culture; format: cell-based, Staphylococcus aureus
Source text: as §1, §2

S. aureus CCARM 3108 = assay: microbe, parasite or virus in culture; format: cell-based, Staphylococcus aureus
Source text: as §1, §2

[7] = system: Staphylococcus aureus (KCTC 1621); assay: microbe, parasite or virus in culture; format: cell-based; settings: pH 7.2
Source text: as §1, §2

[8] = system: Escherichia coli (KCTC 1682); assay: microbe, parasite or virus in culture; format: cell-based; settings: pH 7.2
Source text: as §1, §2

[9] = system: Salmonella typhimurium (KCTC 1926); assay: microbe, parasite or virus in culture; format: cell-based; settings: pH 7.2
Source text: as §1, §2

S. aureus CCARM 3126 = assay: microbe, parasite or virus in culture
Source text: as §1
The antibacterial activities of the peptides against Gram-negative, Gram-positive and antibiotic-resistant bacterial strains were evaluated using the microbroth dilution method (Park et al. [2003]). Aliquots of culture medium containing bacterial suspensions in mid-logarithmic phase at a concentration of 2 × 10^5 colony forming units (CFU)/ml were added to each well of a multiwell plate containing peptide solution serially diluted 2× in 10 mM sodium phosphate buffer (pH 7.2) or phosphate-buffered saline (PBS, 1.5 mM KH2PO4, 2.7 mM KCl, 8.1 mM Na2HPO4, 150 mM NaCl, pH 7.2). Growth inhibition was evaluated by measuring the absorbance at 620 nm using a Versa-Max microplate Elisa Reader (Molecular Devices Co., Sunnyvale, CA, USA) after 24 h of incubation at 37° C.

[10] = drug-resistant strain, PBS, pH 7.2 (number in parentheses), 2 × 10^5 CFU/ml, 24 h at 37° C, average of 3–4 independent experiments
[11] = Salmonella enterica, drug-resistant strain, 10 mM sodium phosphate buffer, pH 7.2, 2 × 10^5 CFU/ml, 24 h at 37° C, average of 3–4 independent experiments, read-out: MIC
[12] = drug-resistant strain, 10 mM sodium phosphate buffer, pH 7.2, 2 × 10^5 CFU/ml, 24 h at 37° C, average of 3–4 independent experiments
[13] = drug-resistant strain, 10 mM sodium phosphate buffer, pH 7.2, 2 × 10^5 CFU/ml, 24 h at 37° C, average of 3–4 independent experiments, read-out: MIC

NCCCC[C@H](NC(=O)[C@H](Cc1c[nH]c2ccccc12)NC(=O)[C@@H](N)CCCCN)C(=O)N[C@@H](Cc1c[nH]c2ccccc12)C(N)=O [(KW)2, KWKW-NH2] (H-KWKW-NH2)
>200 (>200) μM: MIC (E. coli CCARM 1238; CCARM 1238, 24 h, pH 7.2) | MIC (E. coli CCARM 1229; CCARM 1229, 24 h, pH 7.2) | MIC ([1]; CCARM 8013, 24 h, pH 7.2) | MIC ([2]; CCARM 8007, 24 h, pH 7.2) | MIC ([3]; CCARM 8009, 24 h, pH 7.2) | MIC [4] | MIC [6] | MIC (S. aureus CCARM 3114; CCARM 3114, 24 h, pH 7.2) | MIC (S. aureus CCARM 3090; CCARM 3090, 24 h, pH 7.2) | MIC (S. aureus CCARM 3089; CCARM 3089, 24 h, pH 7.2) | MIC (S. aureus CCARM 3108; CCARM 3108, 24 h, pH 7.2) | MIC ([7]; KCTC 1621, 24 h) | MIC ([8]; KCTC 1682, 24 h)
550 µM: MHC (minimal hemolytic concentration) (human red blood cells)
200 (>200) μM: MIC [5]

CC1(C)S[C@@H]2[C@H](NC(=O)[C@H](N)c3ccccc3)C(=O)N2[C@H]1C(=O)O [Ampicillin, reference compound]
> 200 µM: MIC (E. coli CCARM 1238; Escherichia coli, CCARM1238, drug-resistant strain, 10 mM sodium phosphate buffer, pH 7.2, 2 × 10^5 CFU/ml, 24 h at 37° C, average of 3–4 independent experiments, read-out: MIC) | MIC (E. coli CCARM 1229; Escherichia coli, CCARM1229, drug-resistant strain, 10 mM sodium phosphate buffer, pH 7.2, 2 × 10^5 CFU/ml, 24 h at 37° C, average of 3–4 independent experiments, read-out: MIC) | MIC [1, 11] | MIC [2, 11] | MIC [3, 11]
>200 (>200) μM: MIC (E. coli CCARM 1238; [10]) | MIC (E. coli CCARM 1229; [10]) | MIC [1, 10] | MIC [2, 10] | MIC [3, 10]
25 µM: MIC ([9]; Salmonella enterica, 10 mM sodium phosphate buffer, 2 × 10^5 CFU/ml, 24 h at 37° C, average of 3–4 independent experiments, read-out: MIC)
50 µM: MIC ([8]; Escherichia coli, KCTC1682, 24 h)

Cc1onc(-c2ccccc2)c1C(=O)N[C@@H]1C(=O)N2[C@@H]1SC(C)(C)[C@@H]2C(=O)O [Oxacillin, reference compound]
12.5 µM: MIC ([7]; Staphylococcus aureus, KCTC1621, 10 mM sodium phosphate buffer, 2 × 10^5 CFU/ml, 24 h at 37° C, average of 3–4 independent experiments, read-out: MIC)
>200 (>200) μM: MIC (S. aureus CCARM 3114; [10]) | MIC (S. aureus CCARM 3090; [10]) | MIC (S. aureus CCARM 3089; [10]) | MIC (S. aureus CCARM 3108; [10]) | MIC (S. aureus CCARM 3126; [10])
> 200 µM: MIC (S. aureus CCARM 3114; Staphylococcus aureus, CCARM3114, drug-resistant strain, 10 mM sodium phosphate buffer, pH 7.2, 2 × 10^5 CFU/ml, 24 h at 37° C, average of 3–4 independent experiments, read-out: MIC) | MIC (S. aureus CCARM 3090; Staphylococcus aureus, CCARM3090, drug-resistant strain, 10 mM sodium phosphate buffer, pH 7.2, 2 × 10^5 CFU/ml, 24 h at 37° C, average of 3–4 independent experiments, read-out: MIC) | MIC (S. aureus CCARM 3089; Staphylococcus aureus, CCARM3089, drug-resistant strain, 10 mM sodium phosphate buffer, pH 7.2, 2 × 10^5 CFU/ml, 24 h at 37° C, average of 3–4 independent experiments, read-out: MIC) | MIC (S. aureus CCARM 3108; Staphylococcus aureus, CCARM3108, drug-resistant strain, 10 mM sodium phosphate buffer, pH 7.2, 2 × 10^5 CFU/ml, 24 h at 37° C, average of 3–4 independent experiments, read-out: MIC) | MIC (S. aureus CCARM 3126; Staphylococcus aureus, CCARM3126, 24 h, pH 7.2)

KWKWKW-NH2 [(KW)3, KWKWKW-NH2]
50 µM: MIC (S. aureus CCARM 3126; [12])
350 µM: MHC (minimal hemolytic concentration) (human red blood cells)
200 µM: MIC (S. aureus CCARM 3126; [10])

KWKWKWKW-NH2 [(KW)4, KWKWKWKW-NH2]
8%: Hemolysis (human red blood cells)
12.5 (12.5) μM: MIC (E. coli CCARM 1238; [12]) | MIC (E. coli CCARM 1238; [10]) | MIC [2, 12] | MIC [2, 10] | MIC (S. aureus CCARM 3114; [12]) | MIC (S. aureus CCARM 3114; [10]) | MIC (S. aureus CCARM 3090; [12]) | MIC (S. aureus CCARM 3090; [10]) | MIC (S. aureus CCARM 3089; [12]) | MIC (S. aureus CCARM 3089; [10]) | MIC (S. aureus CCARM 3108; [12]) | MIC (S. aureus CCARM 3108; [10]) | MIC (S. aureus CCARM 3126; [12]) | MIC (S. aureus CCARM 3126; [10])
210 µM: MHC (minimal hemolytic concentration) (human red blood cells)
1.56 (1.56) μM: MIC ([9]; KCTC 1926, 24 h)
3.12 (3.12) μM: MIC [5] | MIC [6]

KWKWKWKWKW-NH2 [(KW)5, KWKWKWKWKW-NH2]
12.5 (12.5) μM: MIC [4]
50 µM: MHC (minimal hemolytic concentration) (human red blood cells)
3.12 (3.12) μM: MIC [5]
71%: Hemolysis (human red blood cells)
25 µM: MIC [1, 13] | MIC [2, 13] | MIC [3, 13] | MIC (S. aureus CCARM 3114; [13]) | MIC (S. aureus CCARM 3090; [13]) | MIC (S. aureus CCARM 3126; [12]) | MIC ([7]; KCTC 1621, 24 h, read-out: MIC)
